According to PubChem BioAssay (NCI):
“And” between values parts separate entries of the source, which are not always exact repeats. Equal entries are not always repeated.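 Step 1: Grow cells in 96-well plates. Step 2: Expose to compound for 48 hours at 5 concentrations. Step 3: Interpolate endpoints linearly; if unreached, use highest concentration. GI50: concentration for 50% inhibition of growth. TGI: total growth inhibition.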

Tests used:
Assay in all cases: NCI anticancer screen, dose series, 48 h
786-0 renal = tested on: 786-0 renal
A498 renal = tested on: A498 renal
A549 NSCLC = tested on: A549 NSCLC
ACHN renal = tested on: ACHN renal
BT-549 breast = tested on: BT-549 breast
CAKI-1 renal = tested on: CAKI-1 renal
CCRF-CEM leukemia = tested on: CCRF-CEM leukemia
COLO 205 colon = tested on: COLO 205 colon
DU-145 prostate = tested on: DU-145 prostate
EKVX NSCLC = tested on: EKVX NSCLC
HCC-2998 colon = tested on: HCC-2998 colon
HCT-116 colon = tested on: HCT-116 colon
HCT-15 colon = tested on: HCT-15 colon
HL-60(TB) leukemia = tested on: HL-60(TB) leukemia
HOP-62 NSCLC = tested on: HOP-62 NSCLC
HOP-92 NSCLC = tested on: HOP-92 NSCLC
HS 578T breast = tested on: HS 578T breast
HT29 colon = tested on: HT29 colon
IGROV1 ovarian = tested on: IGROV1 ovarian
K-562 leukemia = tested on: K-562 leukemia
KM12 colon = tested on: KM12 colon
LOX IMVI melanoma = tested on: LOX IMVI melanoma
M14 melanoma = tested on: M14 melanoma
MALME-3M melanoma = tested on: MALME-3M melanoma
MCF7 breast = tested on: MCF7 breast
MDA-MB-231 breast = tested on: MDA-MB-231 breast
MDA-MB-435 = tested on: MDA-MB-435
MOLT-4 leukemia = tested on: MOLT-4 leukemia
NCI-H226 lung = tested on: NCI-H226 lung
NCI-H23 lung = tested on: NCI-H23 lung
NCI-H460 lung = tested on: NCI-H460 lung
NCI-H522 lung = tested on: NCI-H522 lung
NCI/ADR-RES ovarian = tested on: NCI/ADR-RES ovarian
OVCAR-3 ovarian = tested on: OVCAR-3 ovarian
OVCAR-4 ovarian = tested on: OVCAR-4 ovarian
OVCAR-5 ovarian = tested on: OVCAR-5 ovarian
OVCAR-8 ovarian = tested on: OVCAR-8 ovarian
PC-3 prostate = tested on: PC-3 prostate
RPMI-8226 leukemia = tested on: RPMI-8226 leukemia
RXF 393 renal = tested on: RXF 393 renal
SF-268 CNS = tested on: SF-268 CNS
SF-295 CNS = tested on: SF-295 CNS
SF-539 CNS = tested on: SF-539 CNS
SK-MEL-2 melanoma = tested on: SK-MEL-2 melanoma
SK-MEL-28 melanoma = tested on: SK-MEL-28 melanoma
SK-MEL-5 melanoma = tested on: SK-MEL-5 melanoma
SK-OV-3 ovarian = tested on: SK-OV-3 ovarian
SN12C renal = tested on: SN12C renal
SNB-19 CNS = tested on: SNB-19 CNS
SNB-75 CNS = tested on: SNB-75 CNS
SR leukemia = tested on: SR leukemia
SW-620 colon = tested on: SW-620 colon
T-47D breast = tested on: T-47D breast
TK-10 renal = tested on: TK-10 renal
U251 CNS = tested on: U251 CNS
UACC-257 melanoma = tested on: UACC-257 melanoma
UACC-62 melanoma = tested on: UACC-62 melanoma
UO-31 renal = tested on: UO-31 renal

For `O=C(NNc1nc2cc(F)c(F)cc2n2cccc12)c1cccnn1`, the GI50 (786-0 renal) was 0.669 µM and 0.296 µM, the TGI (786-0 renal) was 30 µM and 12.9 µM and the GI50 (A498 renal) was 0.614 µM and 0.382 µM. The TGI (A498 renal) was 3.26 µM and 2.45 µM, the GI50 (A549 NSCLC) was 0.316 µM and 0.249 µM and the TGI (A549 NSCLC) was 30 µM and 15 µM. The GI50 (ACHN renal) was 0.158 µM and 0.134 µM, the TGI (ACHN renal) was 8.32 µM and 6.53 µM and the GI50 (BT-549 breast) was 1.4 µM and 0.271 µM. The TGI (BT-549 breast) was 30 µM and 24.8 µM, the GI50 (CAKI-1 renal) was 0.261 µM and 0.251 µM and the TGI (CAKI-1 renal) was 30 µM and 11.2 µM. For the same molecule, the GI50 (CCRF-CEM leukemia) was 0.0765 µM, the TGI (CCRF-CEM leukemia) was 1.01 µM and the GI50 (COLO 205 colon) was 0.384 µM and 0.321 µM. For the same molecule, the TGI (COLO 205 colon) was 30 µM and 19.1 µM, the GI50 (DU-145 prostate) was 0.346 µM and 0.579 µM and the TGI (DU-145 prostate) was 30 µM and 16.1 µM. The GI50 (EKVX NSCLC) was 0.255 µM and 0.19 µM, the TGI (EKVX NSCLC) was 30 µM and 16.1 µM and the GI50 (HCC-2998 colon) was 0.589 µM and 0.474 µM. The TGI (HCC-2998 colon) was 30 µM and 19.5 µM, the GI50 (HCT-116 colon) was 0.207 µM and 0.173 µM and the TGI (HCT-116 colon) was 30 µM and 11.9 µM. The GI50 (HCT-15 colon) was 0.123 µM and 0.0468 µM, the TGI (HCT-15 colon) was 30 µM and 38.3 µM and the GI50 (HL-60(TB) leukemia) was 0.57 µM and 0.231 µM. The GI50 (HOP-62 NSCLC) was 0.275 µM and 0.0994 µM, the TGI (HOP-62 NSCLC) was 9.22 µM and 11.3 µM and the GI50 (HOP-92 NSCLC) was 0.398 µM. For the same molecule, the TGI (HOP-92 NSCLC) was 8.82 µM, the GI50 (HS 578T breast) was 1.4 µM and 1.04 µM and the TGI (HS 578T breast) was 30 µM and 79 µM. For the same molecule, the GI50 (HT29 colon) was 0.644 µM and 0.542 µM, the TGI (HT29 colon) was 30 µM and 29.2 µM and the GI50 (IGROV1 ovarian) was 0.227 µM and 0.273 µM. For the same molecule, the TGI (IGROV1 ovarian) was 5.02 µM and 4.69 µM, the GI50 (K-562 leukemia) was 0.374 µM and 0.323 µM and the TGI (K-562 leukemia) was 30 µM and 3.78 µM. For the same molecule, the GI50 (KM12 colon) was 0.378 µM and 0.336 µM, the TGI (KM12 colon) was 30 µM and 33.3 µM and the GI50 (LOX IMVI melanoma) was 0.247 µM and 0.156 µM. The TGI (LOX IMVI melanoma) was 1.09 µM and 5.27 µM, the GI50 (M14 melanoma) was 0.309 µM and 0.197 µM and the TGI (M14 melanoma) was 30 µM and 11.5 µM. The GI50 (MALME-3M melanoma) was 0.771 µM and 0.811 µM, the TGI (MALME-3M melanoma) was 28.7 µM and the GI50 (MCF7 breast) was 0.408 µM and 0.304 µM. For the same molecule, the TGI (MCF7 breast) was 4.31 µM and 2.83 µM, the GI50 (MDA-MB-231 breast) was 0.559 µM and 0.75 µM and the TGI (MDA-MB-231 breast) was 30 µM and 54.7 µM. The GI50 (MDA-MB-435) was 1.16 µM and 0.811 µM, the TGI (MDA-MB-435) was 30 µM and 19.9 µM and the GI50 (MOLT-4 leukemia) was 0.178 µM and 0.136 µM. For the same molecule, the GI50 (NCI-H226 lung) was 0.387 µM and 0.643 µM, the TGI (NCI-H226 lung) was 14.7 µM and 12.1 µM and the GI50 (NCI-H23 lung) was 0.654 µM. For the same molecule, the TGI (NCI-H23 lung) was 50.8 µM, the GI50 (NCI-H460 lung) was 0.134 µM and 0.081 µM and the TGI (NCI-H460 lung) was 3.65 µM and 1.96 µM. For the same molecule, the GI50 (NCI-H522 lung) was 0.747 µM and 0.262 µM, the GI50 (NCI/ADR-RES ovarian) was 0.205 µM and 0.207 µM and the TGI (NCI/ADR-RES ovarian) was 2.88 µM and 3.56 µM. The GI50 (OVCAR-3 ovarian) was 0.227 µM and 0.243 µM, the TGI (OVCAR-3 ovarian) was 3.71 µM and 13.2 µM and the GI50 (OVCAR-4 ovarian) was 0.209 µM and 0.201 µM. For the same molecule, the TGI (OVCAR-4 ovarian) was 30 µM and > 100 µM, the GI50 (OVCAR-5 ovarian) was 0.693 µM and 2.31 µM and the TGI (OVCAR-5 ovarian) was 30 µM and 32.3 µM. The GI50 (OVCAR-8 ovarian) was 0.322 µM and 0.269 µM, the TGI (OVCAR-8 ovarian) was 30 µM and > 100 µM and the GI50 (PC-3 prostate) was 0.201 µM and 0.419 µM. The GI50 (RPMI-8226 leukemia) was 0.305 µM and 0.338 µM, the TGI (RPMI-8226 leukemia) was 1.15 µM and 7.72 µM and the GI50 (RXF 393 renal) was 0.7 µM and 0.245 µM. For the same molecule, the TGI (RXF 393 renal) was 4.13 µM and 13.2 µM, the GI50 (SF-268 CNS) was 0.364 µM and 0.274 µM and the TGI (SF-268 CNS) was 30 µM and > 100 µM. The GI50 (SF-295 CNS) was 0.202 µM and 0.0975 µM, the TGI (SF-295 CNS) was 5.23 µM and 6.17 µM and the GI50 (SF-539 CNS) was 0.349 µM and 0.339 µM. For the same molecule, the TGI (SF-539 CNS) was 9.18 µM and 8.1 µM, the GI50 (SK-MEL-2 melanoma) was 0.963 µM and 1.49 µM and the TGI (SK-MEL-2 melanoma) was 30 µM and 15.5 µM. The GI50 (SK-MEL-28 melanoma) was 0.504 µM and 0.515 µM, the TGI (SK-MEL-28 melanoma) was 30 µM and 22.4 µM and the GI50 (SK-MEL-5 melanoma) was 0.491 µM and 0.271 µM. The TGI (SK-MEL-5 melanoma) was 3.35 µM and 2 µM, the GI50 (SK-OV-3 ovarian) was 0.3 µM and 0.326 µM and the TGI (SK-OV-3 ovarian) was 11.4 µM and 17.9 µM. The GI50 (SN12C renal) was 0.468 µM and 0.646 µM, the TGI (SN12C renal) was 30 µM and 31.4 µM and the GI50 (SNB-19 CNS) was 0.394 µM and 0.434 µM. For the same molecule, the TGI (SNB-19 CNS) was 30 µM and > 100 µM, the GI50 (SNB-75 CNS) was 0.267 µM and 1.91 µM and the TGI (SNB-75 CNS) was 22 µM and 25.4 µM. For the same molecule, the GI50 (SR leukemia) was 0.175 µM and 0.0486 µM, the GI50 (SW-620 colon) was 0.231 µM and 0.354 µM and the TGI (SW-620 colon) was 30 µM and 60.3 µM. The GI50 (T-47D breast) was 0.838 µM and 0.293 µM, the TGI (T-47D breast) was 24.5 µM and 9.75 µM and the GI50 (TK-10 renal) was 0.263 µM and 0.294 µM. The TGI (TK-10 renal) was 30 µM and 29 µM, the GI50 (U251 CNS) was 0.229 µM and 0.172 µM and the TGI (U251 CNS) was 30 µM and 36.1 µM. For the same molecule, the GI50 (UACC-257 melanoma) was 0.802 µM and 0.364 µM, the TGI (UACC-257 melanoma) was 2.89 µM and 11 µM and the GI50 (UACC-62 melanoma) was 0.331 µM and 0.388 µM. The TGI (UACC-62 melanoma) was 2.29 µM and 8.83 µM, the GI50 (UO-31 renal) was 0.105 µM and 0.0414 µM and the TGI (UO-31 renal) was 3.97 µM and 2.34 µM.
